Data reported in patent US20070232601A1, “Vla-4 Inhibitor” (priority 2004, published 2007).

Legend:
[1] = Dispersibility test in Japanese Pharmacopoeia First and Second Solution; assay type: physicochemical; settings: for Dispersibility in Japanese Pharmacopoeia First Solution: JP1, pH 1.2; for Dispersibility in Japanese Pharmacopoeia Second Solution: JP2, pH 6.8
Description: Dispersibility of a test substance in Japanese Pharmacopoeia First Solution (JP1, pH 1.2) and Japanese Pharmacopoeia Second Solution (JP2, pH 6.8) was evaluated.

[2] = target: T1, hα4 and β1 integrins (VLA-4) (Homo sapiens, UniProt P05556+P13612); assay: In vitro evaluation: inhibition of binding of CHO cells expressing hα4 and β1 integrins to Eu3+-hVCAM-1 D1D7-IgG; settings: ligand Eu3+-hVCAM-1 D1D7-IgG 2 nM, Ki calculated from IC50
T1 construct: expressed in transfected cells; host or cells: CHO cells
T1 sequence (P13612 34-1032): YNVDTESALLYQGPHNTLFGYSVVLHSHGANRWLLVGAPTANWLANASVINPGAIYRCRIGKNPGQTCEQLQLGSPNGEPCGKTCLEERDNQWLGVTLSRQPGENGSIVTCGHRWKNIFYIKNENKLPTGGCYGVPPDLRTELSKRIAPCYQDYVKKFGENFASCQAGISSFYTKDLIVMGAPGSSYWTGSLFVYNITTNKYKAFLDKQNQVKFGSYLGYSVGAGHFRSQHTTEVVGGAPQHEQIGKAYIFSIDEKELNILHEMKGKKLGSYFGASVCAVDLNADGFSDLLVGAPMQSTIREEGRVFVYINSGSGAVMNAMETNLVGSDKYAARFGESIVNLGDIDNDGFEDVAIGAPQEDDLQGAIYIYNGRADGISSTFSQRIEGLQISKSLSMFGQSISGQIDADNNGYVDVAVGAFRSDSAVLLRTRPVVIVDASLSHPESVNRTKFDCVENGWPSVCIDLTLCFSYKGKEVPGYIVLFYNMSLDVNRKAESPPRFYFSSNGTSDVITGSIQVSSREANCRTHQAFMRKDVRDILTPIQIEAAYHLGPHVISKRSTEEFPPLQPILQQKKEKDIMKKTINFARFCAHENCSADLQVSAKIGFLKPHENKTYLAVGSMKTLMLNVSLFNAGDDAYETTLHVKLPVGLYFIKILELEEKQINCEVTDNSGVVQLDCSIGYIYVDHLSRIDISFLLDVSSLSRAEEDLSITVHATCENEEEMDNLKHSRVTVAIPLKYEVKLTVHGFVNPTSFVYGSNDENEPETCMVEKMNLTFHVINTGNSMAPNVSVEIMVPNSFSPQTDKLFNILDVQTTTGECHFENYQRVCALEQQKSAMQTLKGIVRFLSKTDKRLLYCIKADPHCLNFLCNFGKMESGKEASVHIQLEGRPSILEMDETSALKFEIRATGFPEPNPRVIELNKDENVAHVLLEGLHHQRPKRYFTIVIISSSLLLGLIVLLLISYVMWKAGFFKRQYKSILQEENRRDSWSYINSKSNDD
T1 sequence (P05556 21-798): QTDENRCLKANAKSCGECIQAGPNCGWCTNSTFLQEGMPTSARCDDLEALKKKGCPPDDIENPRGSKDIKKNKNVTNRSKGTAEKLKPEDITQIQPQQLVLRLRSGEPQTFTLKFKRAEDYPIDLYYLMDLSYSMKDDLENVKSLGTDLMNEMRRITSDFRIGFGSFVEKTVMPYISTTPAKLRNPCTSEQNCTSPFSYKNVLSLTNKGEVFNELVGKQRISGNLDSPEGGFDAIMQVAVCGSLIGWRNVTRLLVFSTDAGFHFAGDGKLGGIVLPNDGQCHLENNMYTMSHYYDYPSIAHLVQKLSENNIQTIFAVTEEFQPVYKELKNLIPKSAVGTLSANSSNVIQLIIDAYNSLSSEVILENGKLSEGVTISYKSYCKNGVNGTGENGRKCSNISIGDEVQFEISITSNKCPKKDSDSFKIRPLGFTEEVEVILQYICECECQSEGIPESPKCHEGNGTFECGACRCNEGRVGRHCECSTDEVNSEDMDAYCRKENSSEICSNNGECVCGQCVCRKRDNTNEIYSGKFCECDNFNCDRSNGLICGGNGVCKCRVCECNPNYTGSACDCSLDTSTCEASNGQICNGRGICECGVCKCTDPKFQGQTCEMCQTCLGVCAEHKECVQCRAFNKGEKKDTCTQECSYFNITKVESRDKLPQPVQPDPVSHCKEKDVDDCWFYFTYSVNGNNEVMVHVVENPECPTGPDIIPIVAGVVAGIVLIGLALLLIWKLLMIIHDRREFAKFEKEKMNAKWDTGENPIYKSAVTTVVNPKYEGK
Procedure, shortened: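 CHO cells stably expressing hα4β1 were cultured 2 days, then incubated 1 h at room temperature with Eu3+-hVCAM-1 D1D7-IgG (added as 2 nM solution) and compound in HEPES pH 7.5 with Ca2+, Mg2+ and 4 mM Mn2+, ± 6% human serum albumin. Bound europium was read by time-resolved fluorescence; IC50 was converted to Ki using Scatchard-derived Kd.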

| Compound | Dispersibility in Japanese Pharmacopoeia First Solution [1] | Dispersibility in Japanese Pharmacopoeia Second Solution [1] | Ki [2] |
| --- | --- | --- | --- |
| O=C(O)CCc1cnc([C@@H]2C[C@H](N3CCN(CC(F)(F)F)CC3)CN2C(=O)Cc2cc(Cl)c(NC(=O)c3coc4ccccc34)cc2Cl)s1 [Example 84] | 280 µg/mL | 760 µg/mL | 1.5 nM |
| O=C(O)CCc1cnc([C@@H]2C[C@H](N3CCN(CC(F)(F)F)CC3)CN2C(=O)Cc2cc(Cl)c(NC(=O)c3coc4ccccc34)cc2F)s1 [Example 83] | 540 µg/mL | 1000 µg/mL | 1.6 nM |
| COC1CN([C@H]2C[C@@H](c3ncc(CCC(=O)O)s3)N(C(=O)Cc3cc(Cl)c(NC(=O)c4cn(C)c5ccccc45)cc3F)C2)C1 [Example 63, 3-[2-[1-[5-Chloro-2-fluoro-4-(1-methyl-3-indolylcarbonylamino)phenylacetyl]-(4S)-[1-(3-methoxy)azetidinyl]-(2S)-pyrrolidinyl]-5-thiazolyl]propionic acid] | 1000 µg/mL | 1000 µg/mL | 0.89 nM |
| O=C(O)CCc1cnc([C@@H]2C[C@H](N3CCC(F)(F)CC3)CN2C(=O)Cc2cc(Cl)c(NC(=O)c3csc4ccccc34)cc2F)s1 [Example 75, 3-[2-[1-[4-(3-Benzo[b]thiophenylcarbonylamino)-5-chloro-2-fluorophenylacetyl]-(4S)-[1-(4,4-difluoro)piperidinyl]-(2S)-pyrrolidinyl]-5-thiazolyl]propionic acid] | 220 µg/mL | 160 µg/mL | 0.47 nM |
| CCOC1CN([C@H]2C[C@@H](c3ncc(CCC(=O)O)s3)N(C(=O)Cc3cc(Cl)c(NC(=O)c4csc5ccccc45)cc3F)C2)C1 [Example 71, 3-[2-[1-[4-(3-Benzo[b]thiophenylcarbonylamino)-5-chloro-2-fluorophenylacetyl]-(4S)-1-(3-ethoxy)azetidinyl-(2S)-pyrrolidinyl]-5-thiazolyl]propionic acid] | 940 µg/mL | 940 µg/mL | 0.5 nM |
| COC1CN([C@H]2C[C@@H](c3ncc(CCC(=O)O)s3)N(C(=O)Cc3cc(Cl)c(NC(=O)c4cn(C)c5ccccc45)cc3Cl)C2)C1 [Example 64, 3-[2-[1-[2,5-Dichloro-4-(1-methyl-3-indolylcarbonylamino)phenylacetyl]-(4S)-[1-(3-methoxy)-azetidinyl]-(2S)-pyrrolidinyl]-5-thiazolyl]propionic acid] | 1000 µg/mL | 1000 µg/mL | 3.8 nM |
| COc1ccccc1Nc1nc2ccc(CC(=O)N3C[C@@H](OC)C[C@H]3c3ncc(CCC(=O)O)s3)c(F)c2o1 [Example 10, 3-[2-[1-[[7-Fluoro-2-(2-methoxyphenylamino)-1,3-benzoxazol-6-yl]acetyl]-(4S)-methoxy-(2S)-pyrrolidinyl]-5-thiazolyl]propionic acid] | 1700 µg/mL | 2000 µg/mL | 0.56 nM |
| O=C(O)CCc1cnc([C@@H]2[C@@H](O)CCN2C(=O)Cc2cc(Cl)c(Nc3nc4ccccc4s3)cc2F)s1 [Example 120, 3-[2-[1-[4-(2-Benzothiazolyl)amino-5-chloro-2-fluorophenyl]acetyl-(3S)-hydroxy-(2S)-pyrrolidinyl]-5-thiazolyl]propionic acid] | 320 µg/mL | 760 µg/mL | 9.8 nM |
| CO[C@H]1C[C@@H](c2ncc(CCC(=O)O)s2)N(C(=O)Cc2ccc(Nc3nc4ccccc4s3)c(Cl)c2)C1 [Example 110, 3-[2-[1-[4-(2-Benzothiazolyl)amino-3-chlorophenyl]acetyl-(4S)-methoxy-(2S)-pyrrolidinyl]-5-thiazolyl]propionic acid] | 730 µg/mL | 730 µg/mL | 2.5 nM |
| Cn1cc(C(=O)Nc2cc(F)c(CC(=O)N3C[C@@H](N4CCN(CC(F)(F)F)CC4)C[C@H]3c3ncc(CCC(=O)O)s3)cc2Cl)c2ccccc21 [Example 79, 3-[2-[1-[5-Chloro-2-fluoro-4-(1-methyl-3-indolylcarbonylamino)phenylacetyl]-(4S)-[1-(4-(2,2,2-trifluoro)ethyl)piperazinyl]-(2S)-pyrrolidinyl]-5-thiazolyl]propionic acid] | 250 µg/mL | 670 µg/mL | 1.5 nM |
| C[C@@H]1CN([C@H]2C[C@@H](c3ncc(CCC(=O)O)s3)N(C(=O)Cc3cc(Cl)c(NC(=O)c4cn(C)c5ccccc45)cc3Cl)C2)C[C@H](C)O1 [Example 86, 3-[2-[1-[2,5-Dichloro-4-(1-methyl-3-indolylcarbonylamino)phenylacetyl]-(4S)-[4-(cis-2,6-dimethyl)morpholinyl]-(2S)-pyrrolidinyl]-5-thiazolyl]propionic acid] | 1200 µg/mL | 1400 µg/mL | 1 nM |
| CO[C@@H]1C[C@@H](c2ncc(CCC(=O)O)s2)N(C(=O)Cc2cc(Cl)c(NC(=O)c3csc4ccccc34)cc2F)C1 [Example 25, 3-[2-[1-[4-[(3-Benzo[b]thienylcarbonyl)amino]-5-chloro-2-fluorophenylacetyl]-(4R)-methoxy-(2S)-pyrrolidinyl]-5-thiazolyl]propionic acid] | 7 µg/mL | 330 µg/mL | 0.84 nM |
| O=C(O)CCc1cnc([C@@H]2C[C@H](N3CCC(F)(F)CC3)CN2C(=O)Cc2cc(Cl)c(NC(=O)c3csc4ccccc34)cc2Cl)s1 [Example 76] | 110 µg/mL | 83 µg/mL | 0.79 nM |
| COC1CN([C@H]2C[C@@H](c3ncc(CCC(=O)O)s3)N(C(=O)Cc3cc(Cl)c(NC(=O)c4csc5ccccc45)cc3F)C2)C1 [Example 65, 3-[2-[1-[4-(3-Benzo[b]thiophenylcarbonylamino)-5-chloro-2-fluorophenylacetyl]-(4S)-[1-(3-methoxy)azetidinyl]-(2S)-pyrrolidinyl]-5-thiazolyl]propionic acid] | 1000 µg/mL | 1000 µg/mL | 0.93 nM |
| CO[C@H]1C[C@@H](c2ncc(CCC(=O)O)s2)N(C(=O)Cc2ccc(Nc3nc4ccccc4o3)c(Cl)c2)C1 [Example 107, 3-[2-[1-[4-(2-Benzoxazolyl)amino-3-chlorophenyl]acetyl-(4S)-methoxy-(2S)-pyrrolidinyl]-5-thiazolyl]propionic acid] | 700 µg/mL | 700 µg/mL | 9.2 nM |
| Cn1cc(C(=O)Nc2cc(Cl)c(CC(=O)N3CCC[C@H]3c3ncc(CCC(=O)O)s3)cc2Cl)c2ccccc21 [Example 26, 3-[2-[1-[2,5-Dichloro-4-(1-methyl-3-indolylcarbonylamino)phenylacetyl]-(2S)-pyrrolidinyl]-5-thiazolyl]propionic acid] | 4 µg/mL | 660 µg/mL | 2.5 nM |
| O=C(O)CCc1cnc([C@@H]2[C@@H](O)CCN2C(=O)Cc2cc(Cl)c(Nc3nc4ccccc4s3)cc2Cl)s1 [Example 121, 3-[2-[1-[4-(2-Benzothiazolyl)amino-2,5-dichlorophenyl]acetyl-(3S)-hydroxy-(2S)-pyrrolidinyl]-5-thiazolyl]propionic acid] | 160 µg/mL | 780 µg/mL | 8.5 nM |
| COC1CN([C@H]2C[C@@H](c3ncc(CCC(=O)O)s3)N(C(=O)Cc3cc(Cl)c(NC(=O)c4csc5ccccc45)cc3Cl)C2)C1 [Example 66] | 1000 µg/mL | 1000 µg/mL | 0.84 nM |
| C[C@@H]1CN([C@H]2C[C@@H](c3ncc(CCC(=O)O)s3)N(C(=O)Cc3cc(Cl)c(NC(=O)c4coc5ccccc45)cc3F)C2)C[C@H](C)O1 [Example 89] | 1100 µg/mL | 1300 µg/mL | 1.3 nM |
| CCOC1CN([C@H]2C[C@@H](c3ncc(CCC(=O)O)s3)N(C(=O)Cc3cc(Cl)c(NC(=O)c4cn(C)c5ccccc45)cc3F)C2)C1 [Example 69, 3-[2-[1-[5-Chloro-2-fluoro-4-(1-methyl-3-indolylcarbonylamino)phenylacetyl]-(4S)-[1-(3-ethoxy)azeditinyl]-(2S)-pyrroldinyl]-5-thiazolyl]propionic acid] | 940 µg/mL | 940 µg/mL | 0.71 nM |
| Cn1cc(C(=O)Nc2cc(F)c(CC(=O)N3C[C@@H](N4CCC(F)(F)CC4)C[C@H]3c3ncc(CCC(=O)O)s3)cc2Cl)c2ccccc21 [Example 73, 3-[2-[1-[5-Chloro-2-fluoro-4-(1-methyl-3-indolylcarbonylamino)phenylacetyl]-(4S)-[1-(4,4-difluoro)piperidinyl]-(2S)-pyrrolidinyl]-5-thiazolyl]propionic acid] | 230 µg/mL | 290 µg/mL | 1.1 nM |
